The results in this text go back to ChEMBL document CHEMBL6078714, “Discovery of N-Trifluoromethylated Noscapines as Novel and Potent Agents for the Treatment of Glioblastoma” (J Med Chem, 2025).

Data set [1] concerns U-87 MG. Briefly: Antiproliferative activity against human U-87 MG cells assessed as inhibition of cell proliferation incubated for 72 hrs by CCK8 assay. It counts as functional, cell-based, U-87MG ATCC. (Tetrazolium assays rely on reduction of a dye to a coloured formazan, in cell work by metabolically active cells.)
A short description of data set [2]: Stability of compound in sodium phosphate buffer at pH 7.4 measured after 48 hrs by 1H NMR analysis. It is filed as physicochemical. The conditions noted are these: pH 7.4, 48 h.
Data set [3] in a line: Stability of compound in 0.1M HCl solution at pH 1.0 assessed as parent compound remaining measured after 48 hrs by 1H NMR analysis. To be noted: read-out: Stability. It counts as physicochemical.
Data set [4] concerns U-118-MG. Briefly: Antiproliferative activity against human U-118- MG cells assessed as inhibition of cell proliferation at 10 uM by crystal violet staining based analysis. It is filed as functional.
Data set [5] relates to U-118-MG. Put plainly: Antiproliferative activity against human U-118- MG cells assessed as inhibition of cell proliferation by crystal violet staining based analysis. To be noted: dose 10-40 µM. It counts as functional.
The nature of data set [6]: Stability of compound in sodium carbonate buffer at pH 10 measured after 48 hrs by 1H NMR analysis. It counts as physicochemical. To be noted: pH 10, 48 h.
Data set [7] is described as follows: Permeability of compound incubated for 12 hrs by PAMPA. It counts as ADME. To be noted: read-out: permeability. Background: In PAMPA a lipid-coated filter parts donor from acceptor wells.
Data set [8] deals with U-118-MG. Briefly: Antiproliferative activity against human U-118-MG cells assessed as inhibition of cell proliferation incubated for 72 hrs by CCK8 assay. It is filed as functional, cell-based.
Data set [9] can be described thus: Stability of compound in 0.1M HCl solution at pH 1.0 measured after 48 hrs by 1H NMR analysis. It counts as physicochemical. To be noted: buffer, pH 1, 48 h.
Data set [10] is described as follows: Stability of compound in 0.1M HCl solution at pH 1.0 assessed as parent compound remaining measured after 6 hrs by 1H NMR analysis. The conditions noted are these: read-out: Stability. It is filed as physicochemical.
In data set [11] the test system is U-87 MG. Briefly: Antiproliferative activity against human U87 cells. It counts as functional, cell-based, U-87MG ATCC.
Data set [12] concerns U-118-MG. Put plainly: Antitumor activity against human U-118-MG cells xenografted in male BALB/c nude mouse assessed as tumor growth inhibition at 10 mg/kg, ip administered daily for 4 weeks relative to control. To be noted: 672 h, read-out: TGI. It counts as functional. In general terms: Xenograft models place foreign cells or tissue in a host animal.
A short description of data set [13]: Ratio of drug concentration in male Swiss albino mouse brain to plasma at 5 mg/kg, iv measured after 0.5 hrs. It is filed as ADME, organism-based. The conditions noted are these: read-out: BPR.
Data set [14] deals with U-118-MG. Briefly: Cell cycle arrest in human U-118-MG cells assessed as accumulation of cells at G2 phase at 20 uM incubated for 24 hrs by flow cytometric analysis (reference value: 30.6 %). It counts as functional.
Data set [15] deals with U-118-MG. Put plainly: Cell cycle arrest in human U-118-MG cells assessed as accumulation of cells at G1 phase at 20 uM incubated for 24 hrs by flow cytometric analysis (reference value: 56.2 %). It counts as functional.
In data set [16] the test system is U-118-MG. Briefly: Cell cycle arrest in human U-118-MG cells assessed as accumulation of cells at S phase at 20 uM incubated for 24 hrs by flow cytometric analysis (reference value: 10.7 %). It counts as functional.
Data set [17] concerns U-118-MG. Briefly: Induction of apoptosis in human U-118-MG cells assessed as apoptotic rate at 20 uM incubated for 24 hrs by Annexin V-FITC/PI staining based flow cytometric analysis relative to control. It is filed as functional.
Data set [18] in a line: Drug distribution in male Swiss albino mouse plasma at 5 mg/kg, iv measured after 0.5 hrs. It is filed as ADME, organism-based.
Data set [19] can be described thus: Drug distribution in male Swiss albino mouse brain at 5 mg/kg, iv measured after 0.5 hrs. It counts as ADME, organism-based. To be noted: read-out: Ct.
In data set [20] the test system is U-118-MG. Briefly: Cell cycle arrest in human U-118-MG cells assessed as accumulation of cells at G1 phase at 100 uM incubated for 24 hrs by flow cytometric analysis (reference value: 56.2 %). It counts as functional.
Data set [21] can be described thus: Nephrotoxicity in male BALB/c nude mouse xenografted with human U-118-MG cells assessed as shedding of renal tubular epithelial cells at 0.5 mg/kg, ip administered daily for 4 weeks by H and E staining based analysis. It is filed as toxicity, organism-based. The conditions noted are these: in vivo, 672 h.
Data set [22] can be described thus: Nephrotoxicity in male BALB/c nude mouse xenografted with human U-118-MG cells assessed as intravascular necrosis of renal tubules at 0.5 mg/kg, ip administered daily for 4 weeks by H and E staining based analysis. It counts as toxicity, organism-based. To be noted: in vivo, 672 h.
Data set [23] deals with U-118-MG. Put plainly: Antitumor activity against human U-118-MG cells xenografted in male BALB/c nude mouse assessed as tumor growth inhibition at 2.5 mg/kg, ip administered daily for 4 weeks relative to control. To be noted: 672 h, read-out: TGI. It counts as functional.
In data set [24] the test system is U-118-MG. Put plainly: Cell cycle arrest in human U-118-MG cells assessed as accumulation of cells at G2 phase at 100 uM incubated for 24 hrs by flow cytometric analysis (reference value: 30.6 %). It is filed as functional.
Data set [25] is described as follows: Toxicity in male BALB/c nude mouse xenografted with human U-118-MG cells assessed as body weight loss at 2.5 mg/kg, ip administered daily for 4 weeks. It counts as organism-based. The conditions noted are these: in vivo, 672 h.
In data set [26] the test system is U-118-MG. Briefly: Cell cycle arrest in human U-118-MG cells assessed as accumulation of cells at S phase at 100 uM incubated for 24 hrs by flow cytometric analysis (reference value: 10.7 %). It counts as functional.

Activity calls are given as the source filed them. No cut-off for these calls is given here.

Turning to `COc1ccc2c(c1OC)C(=O)O[C@@H]2[C@H]1c2c(cc3c(c2OC)OCO3)CCN1C(F)(F)F`, the 50% inhibitory concentration (IC50) in the data set with U-87 MG [1] is 67.5 µM; in the data set on U-118-MG [8] it was 31.3 µM. In addition, the Stability result in data set [2] and in [6] was “Stable” throughout. For the same molecule, the remaining at 48 h in data set [3] was 73%. In addition, the outcome in the data set with U-118-MG [4] was Active. Moreover, in the data set on U-118-MG [5], the Activity entry is “Dose-dependent-effect”. Besides, the Papp at 12 h in data set [7] was found to be 18 ×10⁻⁶ cm/s.

Regarding `FC(F)(F)N1CCc2ccccc2C1Cc1ccccc1` (configuration not stated), the Stability result in [9] and in [2] was “Stable” in each case.

On to `FC(F)(F)N1CCc2ccccc2C1`, for which the Stability entry in data set [9] and in data set [2] was “Stable” each time.

In the case of `FC(F)(F)N1CCCc2ccccc21`, the Stability entry in data set [9], in [2] and in data set [6] was “Unstable” each time. For the same molecule, the remaining at 6 h in data set [10] was 7%.

Consider `COc1ccc2c(c1OC)C(=O)O[C@@H]2[C@H]1c2c(c(C#N)c3c(c2OC)OCO3)CCN1C(F)(F)F`, for which the IC50 with U-87 MG [1] was 39.1 µM; in the data set on U-118-MG [8] it was 19.7 µM. In addition, in the data set with U-118-MG [4], the outcome was Active. In the data set on U-118-MG [5], the Activity entry was “Dose-dependent-effect”. The Papp at 12 h in [7] was found to be 12.8 ×10⁻⁶ cm/s.

With `COc1ccc2c(c1OC)C(=O)O[C@@H]2[C@H]1c2c(c(Cl)c3c(c2OC)OCO3)CCN1C(F)(F)F`, the IC50 in the data set on U-87 MG [1] amounted to 25.8 µM; in the data set on U-118-MG [8], 9.83 µM. Also, the result in the data set with U-118-MG [4] was Active. Further, in the data set with U-118-MG [5], the Activity entry is “Dose-dependent-effect”. The Papp at 12 h in [7] was found to be 16.8 ×10⁻⁶ cm/s.

Turning to `CC1=C2CC[C@@](C)(O)[C@@H]2[C@H]2OC(=O)[C@@H](CN(C)C)[C@@H]2CC1`, in the data set with U-87 MG [11], the IC50 turned out to be 21 µM.

As for `CC1c2ccccc2CCN1C(F)(F)F` (configuration not stated), the Stability result in data set [9] and in data set [2] was “Stable” in each case.

For the molecule `COc1ccc2c(c1OC)C(=O)O[C@@H]2[C@H]1c2c(c(I)c3c(c2OC)OCO3)CCN1C(F)(F)F`, the results for the IC50 with U-87 MG [1] and in the data set on U-118-MG [8] were 33.4 µM and 17.5 µM, respectively. In the data set on U-118-MG [4], the result was Active. The Activity entry in the data set with U-118-MG [5] was “Dose-dependent-effect”. In data set [7], the Papp at 12 h came to 15.8 ×10⁻⁶ cm/s.

For the molecule `FC(F)(F)N1CCc2ccccc2[C@@H]1c1ccccc1`, the Stability entry in data set [9] and in data set [2] was “Stable” each time.

On to `COc1ccc2c(c1OC)C(=O)O[C@@H]2[C@H]1c2c(cc3c(c2OC)OCO3)CCN1C` [NOSCAPINE], for which the IC50 in the data set with U-87 MG [1] and in the data set on U-118-MG [8] was more than 100 µM in each case. Moreover, the inhibition in vivo at 10 mg/kg in the data set on U-118-MG [12] stood at 31%. In addition, the Kp at 0.5 h in data set [13] was determined as 0.43. Further, the Activity was 34.1% in the data set with U-118-MG [14], 52.9% in the data set with U-118-MG [15], 10.7% in the data set on U-118-MG [16] and 16.3% with U-118-MG [17]. Further, the concentration at 0.5 h in data set [18] was found to be 45.3 ng/mL; in [19], 19.6 ng/g. The Papp at 12 h in data set [7] is 11 ×10⁻⁶ cm/s.

`Cn1nnc2c(C(N)=O)ncn2c1=O` [TEMOZOLOMIDE]: the Activity in the data set on U-118-MG [20] is reported as 41.3%; in [21], “Toxic”; in [22], “Toxic”; in the data set on U-118-MG [24], 36.8%; in [25] it was “Toxic”; with U-118-MG [26], 18.9%. The IC50 in the data set with U-87 MG [1] and with U-118-MG [8] was more than 100 µM each time. In the data set on U-118-MG [23], the inhibition in vivo at 2.5 mg/kg worked out at 80.4%. In [7], the Papp at 12 h was 1.47 ×10⁻⁶ cm/s.

Usually IC50 stands for the concentration at which inhibition is half-maximal.
